Measurements published in patent US20240407365A1, “Method for Treating Technical Products” (THOR GMBH, priority 2021, published 2024).

Experiment: amount of CMIT remaining in water-based dispersion paint after storage, HPLC
Format: physicochemical
Settings: paint pH 8.3
Method: The amounts of 5-chloro-2-methyl-4-isothiazolinone and zinc oxide specified in Table 1 were added to and homogeneously incorporated in aliquots of a commercially available, preservative-free, water-based matt interior dispersion paint (pH: 8.3; binder: ethylene vinyl acetate; pigment volume concentration (PVC): 77%). After 30 to 45 minutes, the sodium pyrithione was then added. The controls used were samples containing chloro-2-methyl-4-isothiazolinone and sodium pyrithione without zinc oxide and samples containing chloro-2-methyl-4-isothiazolinone only. The samples were stored at 21° C. and, after the time intervals specified in Table 1 (4 hours, 24 hours, 72 hours, 168 hours and 336 hours), the amount of chloro-2-methyl-4-isothiazolinone remaining in the paint was determined with the aid of HPLC analyses.

[1] = NaPy 0 ppm, CMIT 25 ppm, ZnO 0 ppm
[2] = NaPy 0 ppm, CMIT 50 ppm, ZnO 0 ppm
[3] = NaPy 0 ppm, CMIT 100 ppm, ZnO 0 ppm
[4] = NaPy 130 ppm, CMIT 25 ppm, ZnO 0 ppm
[5] = NaPy 130 ppm, CMIT 25 ppm, ZnO 75 ppm
[6] = NaPy 130 ppm, CMIT 25 ppm, ZnO 150 ppm
[7] = NaPy 130 ppm, CMIT 25 ppm, ZnO 225 ppm
[8] = NaPy 130 ppm, CMIT 25 ppm, ZnO 300 ppm
[9] = NaPy 130 ppm, CMIT 25 ppm, ZnO 375 ppm
[10] = NaPy 130 ppm, CMIT 25 ppm, ZnO 450 ppm
[11] = NaPy 130 ppm, CMIT 25 ppm, ZnO 525 ppm
[12] = NaPy 130 ppm, CMIT 50 ppm, ZnO 0 ppm
[13] = NaPy 130 ppm, CMIT 50 ppm, ZnO 75 ppm
[14] = NaPy 130 ppm, CMIT 50 ppm, ZnO 150 ppm
[15] = NaPy 130 ppm, CMIT 50 ppm, ZnO 225 ppm
[16] = NaPy 130 ppm, CMIT 50 ppm, ZnO 300 ppm
[17] = NaPy 130 ppm, CMIT 50 ppm, ZnO 375 ppm
[18] = NaPy 130 ppm, CMIT 50 ppm, ZnO 450 ppm
[19] = NaPy 130 ppm, CMIT 50 ppm, ZnO 525 ppm
[20] = NaPy 130 ppm, CMIT 100 ppm, ZnO 0 ppm
[21] = NaPy 130 ppm, CMIT 100 ppm, ZnO 75 ppm
[22] = NaPy 130 ppm, CMIT 100 ppm, ZnO 150 ppm
[23] = NaPy 130 ppm, CMIT 100 ppm, ZnO 225 ppm
[24] = NaPy 130 ppm, CMIT 100 ppm, ZnO 300 ppm
[25] = NaPy 130 ppm, CMIT 100 ppm, ZnO 375 ppm
[26] = NaPy 130 ppm, CMIT 100 ppm, ZnO 450 ppm
[27] = NaPy 130 ppm, CMIT 100 ppm, ZnO 525 ppm

Cn1sc(Cl)cc1=O [CIMT, 5-chloro-2-methyl-4-isothiazolinone]
CIMT [ppm] after storage at 21° C. 4 [h] [1]: 25 ppm | CIMT [ppm] after storage at 21° C. 24 h [1]: 25 ppm | CIMT [ppm] after storage at 21° C. 72 h [1]: 24 ppm | CIMT [ppm] after storage at 21° C. 168 h [1]: 24 ppm | CIMT [ppm] after storage at 21° C. 336 h [1]: 22 ppm | CIMT [ppm] after storage at 21° C. 4 [h] [2]: 50 ppm | CIMT [ppm] after storage at 21° C. 24 h [2]: 50 ppm | CIMT [ppm] after storage at 21° C. 72 h [2]: 49 ppm | CIMT [ppm] after storage at 21° C. 168 h [2]: 47 ppm | CIMT [ppm] after storage at 21° C. 336 h [2]: 47 ppm | CIMT [ppm] after storage at 21° C. 4 [h] [3]: 101 ppm | CIMT [ppm] after storage at 21° C. 24 h [3]: 100 ppm | CIMT [ppm] after storage at 21° C. 72 h [3]: 101 ppm | CIMT [ppm] after storage at 21° C. 168 h [3]: 99 ppm | CIMT [ppm] after storage at 21° C. 336 h [3]: 95 ppm | CIMT [ppm] after storage at 21° C. 4 [h] [4]: <LOQ (below the limit of determination (<0.5 ppm CMIT)) | CIMT [ppm] after storage at 21° C. 24 h [4]: <LOQ (below the limit of determination (<0.5 ppm CMIT)) | CIMT [ppm] after storage at 21° C. 72 h [4]: <LOQ (below the limit of determination (<0.5 ppm CMIT)) | CIMT [ppm] after storage at 21° C. 168 h [4]: <LOQ (below the limit of determination (<0.5 ppm CMIT)) | CIMT [ppm] after storage at 21° C. 336 h [4]: <LOQ (below the limit of determination (<0.5 ppm CMIT)) | CIMT [ppm] after storage at 21° C. 4 [h] [5]: 13 ppm | CIMT [ppm] after storage at 21° C. 24 h [5]: 4 ppm | CIMT [ppm] after storage at 21° C. 72 h [5]: 1 ppm | CIMT [ppm] after storage at 21° C. 168 h [5]: <LOQ (below the limit of determination (<0.5 ppm CMIT)) | CIMT [ppm] after storage at 21° C. 336 h [5]: <LOQ (below the limit of determination (<0.5 ppm CMIT)) | CIMT [ppm] after storage at 21° C. 4 [h] [6]: 19 ppm | CIMT [ppm] after storage at 21° C. 24 h [6]: 11 ppm | CIMT [ppm] after storage at 21° C. 72 h [6]: 6 ppm | CIMT [ppm] after storage at 21° C. 168 h [6]: 2 ppm | CIMT [ppm] after storage at 21° C. 336 h [6]: <LOQ (below the limit of determination (<0.5 ppm CMIT)) | CIMT [ppm] after storage at 21° C. 4 [h] [7]: 23 ppm | CIMT [ppm] after storage at 21° C. 24 h [7]: 17 ppm | CIMT [ppm] after storage at 21° C. 72 h [7]: 11 ppm | CIMT [ppm] after storage at 21° C. 168 h [7]: 7 ppm | CIMT [ppm] after storage at 21° C. 336 h [7]: 2 ppm | CIMT [ppm] after storage at 21° C. 4 [h] [8]: 24 ppm | CIMT [ppm] after storage at 21° C. 24 h [8]: 21 ppm | CIMT [ppm] after storage at 21° C. 72 h [8]: 14 ppm | CIMT [ppm] after storage at 21° C. 168 h [8]: 12 ppm | CIMT [ppm] after storage at 21° C. 336 h [8]: 6 ppm | CIMT [ppm] after storage at 21° C. 4 [h] [9]: 25 ppm | CIMT [ppm] after storage at 21° C. 24 h [9]: 22 ppm | CIMT [ppm] after storage at 21° C. 72 h [9]: 20 ppm | CIMT [ppm] after storage at 21° C. 168 h [9]: 15 ppm | CIMT [ppm] after storage at 21° C. 336 h [9]: 10 ppm | CIMT [ppm] after storage at 21° C. 4 [h] [10]: 26 ppm | CIMT [ppm] after storage at 21° C. 24 h [10]: 22 ppm | CIMT [ppm] after storage at 21° C. 72 h [10]: 22 ppm | CIMT [ppm] after storage at 21° C. 168 h [10]: 19 ppm | CIMT [ppm] after storage at 21° C. 336 h [10]: 12 ppm | CIMT [ppm] after storage at 21° C. 4 [h] [11]: 24 ppm | CIMT [ppm] after storage at 21° C. 24 h [11]: 21 ppm | CIMT [ppm] after storage at 21° C. 72 h [11]: 21 ppm | CIMT [ppm] after storage at 21° C. 168 h [11]: 18 ppm | CIMT [ppm] after storage at 21° C. 336 h [11]: 14 ppm | CIMT [ppm] after storage at 21° C. 4 [h] [12]: 3 ppm | CIMT [ppm] after storage at 21° C. 24 h [12]: <LOQ (below the limit of determination (<0.5 ppm CMIT)) | CIMT [ppm] after storage at 21° C. 72 h [12]: <LOQ (below the limit of determination (<0.5 ppm CMIT)) | CIMT [ppm] after storage at 21° C. 168 h [12]: <LOQ (below the limit of determination (<0.5 ppm CMIT)) | CIMT [ppm] after storage at 21° C. 336 h [12]: <LOQ (below the limit of determination (<0.5 ppm CMIT)) | CIMT [ppm] after storage at 21° C. 4 [h] [13]: 21 ppm | CIMT [ppm] after storage at 21° C. 24 h [13]: 9 ppm | CIMT [ppm] after storage at 21° C. 72 h [13]: 2 ppm | CIMT [ppm] after storage at 21° C. 168 h [13]: <LOQ (below the limit of determination (<0.5 ppm CMIT)) | CIMT [ppm] after storage at 21° C. 336 h [13]: <LOQ (below the limit of determination (<0.5 ppm CMIT)) | CIMT [ppm] after storage at 21° C. 4 [h] [14]: 31 ppm | CIMT [ppm] after storage at 21° C. 24 h [14]: 19 ppm | CIMT [ppm] after storage at 21° C. 72 h [14]: 11 ppm | CIMT [ppm] after storage at 21° C. 168 h [14]: 8 ppm | CIMT [ppm] after storage at 21° C. 336 h [14]: 1 ppm | CIMT [ppm] after storage at 21° C. 4 [h] [15]: 38 ppm | CIMT [ppm] after storage at 21° C. 24 h [15]: 29 ppm | CIMT [ppm] after storage at 21° C. 72 h [15]: 21 ppm | CIMT [ppm] after storage at 21° C. 168 h [15]: 15 ppm | CIMT [ppm] after storage at 21° C. 336 h [15]: 8 ppm | CIMT [ppm] after storage at 21° C. 4 [h] [16]: 47 ppm | CIMT [ppm] after storage at 21° C. 24 h [16]: 42 ppm | CIMT [ppm] after storage at 21° C. 72 h [16]: 34 ppm | CIMT [ppm] after storage at 21° C. 168 h [16]: 24 ppm | CIMT [ppm] after storage at 21° C. 336 h [16]: 14 ppm | CIMT [ppm] after storage at 21° C. 4 [h] [17]: 49 ppm | CIMT [ppm] after storage at 21° C. 24 h [17]: 49 ppm | CIMT [ppm] after storage at 21° C. 72 h [17]: 40 ppm | CIMT [ppm] after storage at 21° C. 168 h [17]: 30 ppm | CIMT [ppm] after storage at 21° C. 336 h [17]: 23 ppm | CIMT [ppm] after storage at 21° C. 4 [h] [18]: 50 ppm | CIMT [ppm] after storage at 21° C. 24 h [18]: 47 ppm | CIMT [ppm] after storage at 21° C. 72 h [18]: 42 ppm | CIMT [ppm] after storage at 21° C. 168 h [18]: 35 ppm | CIMT [ppm] after storage at 21° C. 336 h [18]: 28 ppm | CIMT [ppm] after storage at 21° C. 4 [h] [19]: 51 ppm | CIMT [ppm] after storage at 21° C. 24 h [19]: 50 ppm | CIMT [ppm] after storage at 21° C. 72 h [19]: 45 ppm | CIMT [ppm] after storage at 21° C. 168 h [19]: 38 ppm | CIMT [ppm] after storage at 21° C. 336 h [19]: 31 ppm | CIMT [ppm] after storage at 21° C. 4 [h] [20]: 8 ppm | CIMT [ppm] after storage at 21° C. 24 h [20]: <LOQ (below the limit of determination (<0.5 ppm CMIT)) | CIMT [ppm] after storage at 21° C. 72 h [20]: <LOQ (below the limit of determination (<0.5 ppm CMIT)) | CIMT [ppm] after storage at 21° C. 168 h [20]: <LOQ (below the limit of determination (<0.5 ppm CMIT)) | CIMT [ppm] after storage at 21° C. 336 h [20]: <LOQ (below the limit of determination (<0.5 ppm CMIT)) | CIMT [ppm] after storage at 21° C. 4 [h] [21]: 37 ppm | CIMT [ppm] after storage at 21° C. 24 h [21]: 25 ppm | CIMT [ppm] after storage at 21° C. 72 h [21]: 13 ppm | CIMT [ppm] after storage at 21° C. 168 h [21]: 6 ppm | CIMT [ppm] after storage at 21° C. 336 h [21]: <LOQ (below the limit of determination (<0.5 ppm CMIT)) | CIMT [ppm] after storage at 21° C. 4 [h] [22]: 52 ppm | CIMT [ppm] after storage at 21° C. 24 h [22]: 39 ppm | CIMT [ppm] after storage at 21° C. 72 h [22]: 28 ppm | CIMT [ppm] after storage at 21° C. 168 h [22]: 16 ppm | CIMT [ppm] after storage at 21° C. 336 h [22]: 5 ppm | CIMT [ppm] after storage at 21° C. 4 [h] [23]: 67 ppm | CIMT [ppm] after storage at 21° C. 24 h [23]: 56 ppm | CIMT [ppm] after storage at 21° C. 72 h [23]: 37 ppm | CIMT [ppm] after storage at 21° C. 168 h [23]: 22 ppm | CIMT [ppm] after storage at 21° C. 336 h [23]: 14 ppm | CIMT [ppm] after storage at 21° C. 4 [h] [24]: 83 ppm | CIMT [ppm] after storage at 21° C. 24 h [24]: 76 ppm | CIMT [ppm] after storage at 21° C. 72 h [24]: 64 ppm | CIMT [ppm] after storage at 21° C. 168 h [24]: 47 ppm | CIMT [ppm] after storage at 21° C. 336 h [24]: 28 ppm | CIMT [ppm] after storage at 21° C. 4 [h] [25]: 93 ppm | CIMT [ppm] after storage at 21° C. 24 h [25]: 89 ppm | CIMT [ppm] after storage at 21° C. 72 h [25]: 77 ppm | CIMT [ppm] after storage at 21° C. 168 h [25]: 63 ppm | CIMT [ppm] after storage at 21° C. 336 h [25]: 44 ppm | CIMT [ppm] after storage at 21° C. 4 [h] [26]: 102 ppm | CIMT [ppm] after storage at 21° C. 24 h [26]: 96 ppm | CIMT [ppm] after storage at 21° C. 72 h [26]: 88 ppm | CIMT [ppm] after storage at 21° C. 168 h [26]: 75 ppm | CIMT [ppm] after storage at 21° C. 336 h [26]: 61 ppm | CIMT [ppm] after storage at 21° C. 4 [h] [27]: 100 ppm | CIMT [ppm] after storage at 21° C. 24 h [27]: 101 ppm | CIMT [ppm] after storage at 21° C. 72 h [27]: 94 ppm | CIMT [ppm] after storage at 21° C. 168 h [27]: 84 ppm | CIMT [ppm] after storage at 21° C. 336 h [27]: 72 ppm
